Broadly, the EC50 is the midpoint of the concentration-response curve. Read a high EC50 as a need for much substance.

This test deals with NL4-3 strain of HIV-1. Put plainly: HIV-1 replication inhibition: cyto-protection of MT4 cells infected with NL4-3 virus (CellTiter-Glo viability assay). Type of test: cell-based. The note with it: Human immunodeficiency virus 1, NL43, 120 h, concentration leading to 50% of cyto-protection, 5 days incubation. As for the experimental part:
The antiviral activity, particularly against HIV, of compounds according to the invention is evaluated by the protocol described below.
Preparation of Virus Stock of the NL4-3 Strain of HIV-1
The virus was prepared as described in Lopez et al (Lopez et al, Proc Natl Acad Sci USA., 2006, 103(40):14947-52, by transfecting 2×10^6 293 T cells (CRL-1573, ATCC) with following modifications: 6 μg of NL4-3 proviral DNA molecular clone were mixed with Fugene 6 transfection reagent from Roche, and used according to manufacturer's instructions. Forty eight hours later, transfected cell supernatants were harvested, filtered through 0.45-μm-pore-size filters, quantified for HIV-1 p24 antigen by using a Innotest HIV antigen mAb assay (Ingen) according to manufacturer's instructions, and used in infection experiments.
Preparation of Compounds:
Serial dilutions of compounds to be tested were prepared in complete RPMI medium from 10 mM DMSO stock solutions, and distributed in a volume of 20 µl in 96 well Falcon 353072 Microtest™ tissue culture plate, in order to get 0.5% DMSO final concentration in each well, after the addition of infected cells. Control wells contained also 0.5% DMSO final concentration but no compound.
MT4 cells (from the NIH AIDS Research and Reference Reagent Program) in RPMI complete medium were counted (10×10^6 cells per well in Falcon 353047 Multiwell™ 24 well) and infected for 2 hours at 37°, at a multiplicity of infection (moi) of 0.0001-0.00001. Cells were then centrifuged 3 min at 3000 rpm, and washed two times in 1 ml PBS to remove viruses that have not entered in cells. Infected cells were resuspended in complete RPMI at 1.25×10^6 cells/ml, and 80 µl of infected cells were distributed in each well containing compounds to be tested or control wells. The plates were then incubated at 37° for 5 days.
Assay Used to Measure the Inhibition of HIV Replication by the Compounds
(according to Gregg S. Jones et al., Antimicrobial Agents and Chemotherapy, 2009, 53 (3): 1194-1203).
After 5 days of incubation, […] of CellTiter-Glo reagent (Promega Biosciences, Inc., Madison Wis., USA) were added to each well. Cell lysis was carried out at room temperature during 10 min, 150 μl of lysates were transferred in Packard Optiplate 96 well, and luminescence was read on a Fluoroskan (Thermo Scientific).
Background: Cellular ATP, detected with luciferase, serves as a proxy for viable cell number.
In turn, `Cc1sc(-c2ccccn2)c(C2=CCC(C)(C)CC2)c1C(OC(C)(C)C)C(=O)O` (stereo not shown) [Example 43, 2-(tert-butoxy)-2-[4-(4,4-dimethylcyclohex-1-en-1-yl)-2-methyl-5-(pyridin-2-yl)thiophen-3-yl]acetic acid] registered an EC50 of 440 nM.
`Cc1sc(-c2ccccc2)c(C2=CCC(C)(C)CC2)c1C(OC(C)(C)C)C(=O)O` (stereo not shown) [Example 44, 2-(tert-butoxy)-2-[4-(4,4-dimethylcyclohex-1-en-1-yl)-2-methyl-5-phenylthiophen-3-yl]acetic acid] had an EC50 of 230 nM.
As for `Cc1sc(-c2nccs2)c(C2=CCC(C)(C)CC2)c1C(OC(C)(C)C)C(=O)O` (stereo not shown) [Example 45, 2-(tert-butoxy)-2-[4-(4,4-dimethylcyclohex-1-en-1-yl)-2-methyl-5-(1,3-thiazol-2-yl)thiophen-3-yl]acetic acid], the figure is 440 nM; as for `Cc1ccc(-c2sc(C)c(C(OC(C)(C)C)C(=O)O)c2C2=CCC(C)(C)CC2)nc1` (stereo not shown) [Example 46, 2-(tert-butoxy)-2-[4-(4,4-dimethylcyclohex-1-en-1-yl)-2-methyl-5-(5-methylpyridin-2-yl)thiophen-3-yl]acetic acid], 450 nM; as for `Cc1cccnc1-c1sc(C)c(C(OC(C)(C)C)C(=O)O)c1C1=CCC(C)(C)CC1` (stereo not shown) [Example 47, 2-(tert-butoxy)-2-[4-(4,4-dimethylcyclohex-1-en-1-yl)-2-methyl-5-(3-methylpyridin-2-yl)thiophen-3-yl]acetic acid], 510 nM.
The molecule `Cc1sc(-c2ccncc2)c(C2=CCC(CF)(CF)CC2)c1C(OC(C)(C)C)C(=O)O` (stereo not shown) [Example 48, [4-(4,4-bis-fluoromethyl-cyclohex-1-enyl)-2-methyl-5-pyridin-4-yl-thiophen-3-yl]-tert-butoxy-acetic acid] registered an EC50 of 130 nM.
To `Cc1sc(-c2ncccn2)c(C2=CCC(C)(C)CC2)c1C(OC(C)(C)C)C(=O)O` (stereo not shown) [Example 49, 2-(tert-butoxy)-2-{2-methyl-4-[4,4-dimethylcyclohex-1-en-1-yl]-5-(Pyrimidin-2-yl)thiophen-3-yl}acetic acid] belongs 990 nM; to `Cc1sc(-n2cccn2)c(C2=CCC(C)(C)CC2)c1C(OC(C)(C)C)C(=O)O` (stereo not shown) [Example 50, 2-(tert-butoxy)-2-[4-(4,4-dimethylcyclohex-1-en-1-yl)-2-methyl-5-(1H-pyrazol-1-yl)thiophen-3-yl]acetic acid], 770 nM; to `CCCc1cccc(-c2sc(C)c(C(OC(C)(C)C)C(=O)O)c2C2=CCC(C)(C)CC2)n1` (stereo not shown) [Example 51, 2-(tert-butoxy)-2-{2-methyl-4-[4,4-dimethylcyclohex-1-en-1-yl]-5-(6-(n-propyl)pyridin-2-yl)thiophen-3-yl}acetic acid], 270 nM.
As for `CCCc1ccc(-c2sc(C)c(C(OC(C)(C)C)C(=O)O)c2C2=CCC(C)(C)CC2)nc1` (stereo not shown) [Example 52, 2-(tert-butoxy)-2-{2-methyl-4-[4,4-dimethylcyclohex-1-en-1-yl]-5-(5-(n-propyl)pyridin-2-yl)thiophen-3-yl}acetic acid], the figure is 930 nM; as for `Cc1sc(-c2ccncc2)c(C2=CCC(C)(CF)CC2)c1C(OC(C)(C)C)C(=O)O` (stereo not shown) [Example 53, [4-(4-fluoromethyl-4-methylcyclohex-1-enyl)-2-methyl-5-pyridin-4-yl-thiophen-3-yl]-tert-butoxy-acetic acid], 70 nM; as for `Cc1sc(-c2cscn2)c(C2=CCC(C)(C)CC2)c1C(OC(C)(C)C)C(=O)O` (stereo not shown) [Example 54, 2-(tert-butoxy)-2-{2-methyl-4-[4,4-dimethylcyclohex-1-en-1-yl]-5-(thiazol-4-yl)thiophen-3-yl}acetic acid], 470 nM.
As for `Cc1sc(-c2ccccc2C(N)=O)c(C2=CCC(C)(C)CC2)c1C(OC(C)(C)C)C(=O)O` (stereo not shown) [Example 55, 2-(tert-butoxy)-2-{2-methyl-4-[4,4-dimethylcyclohex-1-en-1-yl]-5-(carboxamidephen-2-yl)thiophen-3-yl}acetic acid], the figure is 90 nM.
The molecule `CNC(=O)c1ccccc1-c1sc(C)c(C(OC(C)(C)C)C(=O)O)c1C1=CCC(C)(C)CC1` (stereo not shown) [Example 56, 2-(tert-butoxy)-2-{2-methyl-4-[4,4-dimethylcyclohex-1-en-1-yl]-5-(N-methylbenzamide-2-yl)thiophen-3-yl}acetic acid] had an EC50 of 120 nM.
Consider `Cc1sc(C2=CCCCC2)c(C2=CCC(C)(C)CC2)c1C(OC(C)(C)C)C(=O)O` (stereo not shown) [Example 57, 2-(tert-butoxy)-2-[4-(4,4-dimethylcyclohex-1-en-1-yl)-5-(cyclohexen-1-yl)-2-methylthiophen-3-yl]acetic acid], for which the EC50 was 1200 nM.
To `Cc1sc(-c2ccsn2)c(C2=CCC(C)(C)CC2)c1C(OC(C)(C)C)C(=O)O` (stereo not shown) [Example 58, 2-(tert-butoxy)-2-{2-methyl-4-[4,4-dimethylcyclohex-1-en-1-yl]-5-(isothiazol-3-yl)thiophen-3-yl}acetic acid] belongs 110 nM.
To `Cc1sc(C2=CCCC2)c(C2=CCC(C)(C)CC2)c1C(OC(C)(C)C)C(=O)O` (stereo not shown) [Example 59, 2-(tert-butoxy)-2-[4-(4,4-dimethylcyclohex-1-en-1-yl)-5-(cyclopenten-1-yl)-2-methylthiophen-3-yl]acetic acid] belongs 670 nM; to `CC(C)(C)OC(C(=O)O)c1c(C(F)(F)F)sc(-c2ccccc2)c1-c1ccc2c(c1)CCCO2` (stereo not shown) [Example 60, 2-(tert-butoxy)-2-[4-(3,4-dihydro-2H-1-benzopyran-6-yl)-5-phenyl-2-(trifluoromethyl)thiophen-3-yl]acetic acid], 500 nM.
In turn, `Cc1sc(-c2ccccc2)c(-c2ccc3c4c(ccnc24)CCO3)c1C(OC(C)(C)C)C(=O)O` (stereo not shown) [Example 61, 2-(tert-butoxy)-2-[2-methyl-4-(2,3-dihydropyrano[4,3,2-de]quinolin-7-yl)-5-phenyl-thiophen-3-yl]acetic acid] displayed an EC50 of 210 nM.
Molecule `Cc1sc(-c2nsc(Cl)c2C)c(C2=CCC(C)(C)CC2)c1C(OC(C)(C)C)C(=O)O` (stereo not shown) [Example 62, 2-(tert-butoxy)-2-{2-methyl-4-[4,4-dimethylcyclohex-1-en-1-yl]-5-(5-chloro-4-methyl-isothiazol-3-yl)thiophen-3-yl}acetic acid] yielded an EC50 of 820 nM.
To `Cc1sc(-c2ccns2)c(C2=CCC(C)(C)CC2)c1C(OC(C)(C)C)C(=O)O` (stereo not shown) [Example 63, 2-(tert-butoxy)-2-{2-methyl-4-[4,4-dimethylcyclohex-1-en-1-yl]-5-(isothiazol-5-yl)thiophen-3-yl}acetic acid] belongs 950 nM; to `CCOC(C(=O)O)c1c(C)sc(-c2ccncc2)c1C1=CCC(C)(C)CC1` (stereo not shown) [Example 64, 2-[4-(4,4-dimethylcyclohex-1-en-1-yl)-2-methyl-5-(pyridin-4-yl)thiophen-3-yl]-2-ethoxyacetic acid], 710 nM; to `CCCc1sc(C)c(C(OC(C)(C)C)C(=O)O)c1-c1ccc2c(c1)CCCO2` (stereo not shown) [Example 65], 1400 nM.
As for `Cc1sc(C2CC2)c(C2=CCC(C)(C)CC2)c1C(OC(C)(C)C)C(=O)O` (stereo not shown) [Example 66, 2-(tert-butoxy)-2-{2-methyl-4-[4,4-dimethylcyclohex-1-en-1-yl]-5-(cyclopropyl)thiophen-3-yl}acetic acid], the figure is 1100 nM.
To `Cc1sc(-c2ccccc2)c(C2=CCC(C)(C)c3cccnc32)c1C(OC(C)(C)C)C(=O)O` (stereo not shown) [Example 67, 2-(tert-butoxy)-2-[4-(5,5-dimethyl-5,6-dihydroquinolin-8-yl)-2-methyl-5-phenylthiophen-3-yl]acetic acid] belongs 2300 nM; to `Cc1sc(N2CCCC2=O)c(C2=CCC(C)(C)CC2)c1C(OC(C)(C)C)C(=O)O` (stereo not shown) [Example 68, 2-(tert-butoxy)-2-{2-methyl-4-[4,4-dimethylcyclohex-1-en-1-yl]-5-(N-pyrrolidinone)thiophen-3-yl}acetic acid], 1900 nM; to `CCCc1ccnc(-c2sc(C)c(C(OC(C)(C)C)C(=O)O)c2C2=CCC(C)(C)CC2)c1` (stereo not shown) [Example 71, 2-(tert-butoxy)-2-{2-methyl-4-[4,4-dimethylcyclohex-1-en-1-yl]-5-(4-(n-propyl)pyridin-2-yl)thiophen-3-yl}acetic acid], 1100 nM.
For the molecule `Cc1ccnc(-c2sc(C)c(C(OC(C)(C)C)C(=O)O)c2C2=CCC(C)(C)CC2)c1` (stereo not shown) [Example 72, 2-(tert-butoxy)-2-{2-methyl-4-[4,4-dimethylcyclohex-1-en-1-yl]-5-(4-methylpyridin-2-yl)thiophen-3-yl}acetic acid], a half-maximal response (EC50) required 2300 nM. This EC50 lies about 2.1-fold higher than the previous one.

Source of the values: patent US9562033B2, “Inhibitors of viral replication, their process of preparation and their therapeutical uses” (LABORATOIRE BIODIM, priority 2012, dated 2017).
